Experiments:
Kibdelosporangium aridum = experiment: Susceptibility of K. aridum to antibiotics, disk diffusion; assay type: cell-based; details: disk 5 g (so in the source); zones contained a few resistant colonies
Experimental: Susceptibility of K. aridum to antibiotics was examined by placing BBL susceptibility disks on nutrient agar plates seeded with K. aridum as an overlay. Diameters of the zones of inhibition were measured after incubation for one week at 28° C.
Susceptibility to Antibiotics. […] Chlortetracycline ([…]) produced 18 mm zones of inhibition; tetracycline (5 μg) 11-12 mm zones; rifampin (5 μg) 11-15 mm zones; novobiocin (5 μg) 27-28 mm zones. All zones of inhibition contained at least a few resistant colonies.

[1] = test system: rumen fluid from dairy cows; experiment: Rumen in vitro experiment with dairy cow rumen fluid; details: about 23 hours
Experimental: A similar experiment was carried out using rumen fluid from dairy cows fed a typical dairy cow diet of two parts corn silage and three parts dairy concentrate. Specifically, strained rumen fluid (10 ml) was obtained, from an animal fed two hours earlier, via cannula and was mixed with 10 ml of a nutrient broth comprising a 2:3 mix of corn silage and dairy concentrate. After adding a selected growth promotant, the mixture was incubated at 39° C. for about 23 hours, with oscillation.

rumen inoculum = experiment: Rumen in vitro model; set-up: species or system steer

CN(C)[C@@H]1C(O)=C(C(N)=O)C(=O)[C@@]2(O)C(O)=C3C(=O)c4c(O)ccc(Cl)c4[C@@](C)(O)[C@H]3C[C@@H]12 [Chlortetracycline]
Zone of inhibition (Kibdelosporangium aridum): 18 mm

Avoparcin
% PR ([1]; 0.5 ppm): 101% OF CONTROL | ACE ([1]; 0.5 ppm): 100% OF CONTROL | AMO ([1]; 0.5 ppm): 79% OF CONTROL | BUT ([1]; 0.5 ppm): 100% OF CONTROL | DLAC ([1]; 0.5 ppm): 0% OF CONTROL | ETOH ([1]; 0.5 ppm): 0% OF CONTROL | GLU ([1]; 0.5 ppm): 0% OF CONTROL | IBU ([1]; 0.5 ppm): 122% OF CONTROL | IVA ([1]; 0.5 ppm): 101% OF CONTROL | LLAC ([1]; 0.5 ppm): 0% OF CONTROL | LYS ([1]; 0.5 ppm): 91% OF CONTROL | NH--N ([1]; 0.5 ppm): 92% OF CONTROL | PRO ([1]; 0.5 ppm): 102% OF CONTROL | TOTAL ([1]; 0.5 ppm): 1200% OF CONTROL | VAL ([1]; 0.5 ppm): 97% OF CONTROL | % PR ([1]; 5 ppm): 113% OF CONTROL | ACE ([1]; 5 ppm): 94% OF CONTROL | AMO ([1]; 5 ppm): 107% OF CONTROL | BUT ([1]; 5 ppm): 91% OF CONTROL | DLAC ([1]; 5 ppm): 0% OF CONTROL | ETOH ([1]; 5 ppm): 0% OF CONTROL | GLU ([1]; 5 ppm): 0% OF CONTROL | IBU ([1]; 5 ppm): 146% OF CONTROL | IVA ([1]; 5 ppm): 115% OF CONTROL | LLAC ([1]; 5 ppm): 0% OF CONTROL | LYS ([1]; 5 ppm): 92% OF CONTROL | NH--N ([1]; 5 ppm): 122% OF CONTROL | PRO ([1]; 5 ppm): 112% OF CONTROL | TOTAL ([1]; 5 ppm): 99% OF CONTROL | VAL ([1]; 5 ppm): 103% OF CONTROL | % PR ([1]; 50 ppm): 128% OF CONTROL | ACE ([1]; 50 ppm): 108% OF CONTROL | AMO ([1]; 50 ppm): 123% OF CONTROL | BUT ([1]; 50 ppm): 88% OF CONTROL | DLAC ([1]; 50 ppm): 0% OF CONTROL | ETOH ([1]; 50 ppm): 0% OF CONTROL | GLU ([1]; 50 ppm): 0% OF CONTROL | IBU ([1]; 50 ppm): 116% OF CONTROL | IVA ([1]; 50 ppm): 104% OF CONTROL | LLAC ([1]; 50 ppm): 0% OF CONTROL | LYS ([1]; 50 ppm): 88% OF CONTROL | NH--N ([1]; 50 ppm): 148% OF CONTROL | PRO ([1]; 50 ppm): 137% OF CONTROL | TOTAL ([1]; 50 ppm): 107% OF CONTROL | VAL ([1]; 50 ppm): 99% OF CONTROL

CC[C@@H](C(=O)[C@@H](C)[C@@H](O)[C@H](C)CCc1ccc(C)c(O)c1C(=O)O)[C@H]1O[C@](CC)([C@H]2CC[C@](O)(CC)[C@H](C)O2)C[C@@H]1C [Lasalocid]
% PR ([1]; 0.5 ppm): 114% OF CONTROL | ACE ([1]; 0.5 ppm): 95% OF CONTROL | AMO ([1]; 0.5 ppm): 93% OF CONTROL | BUT ([1]; 0.5 ppm): 94% OF CONTROL | DLAC ([1]; 0.5 ppm): 0% OF CONTROL | ETOH ([1]; 0.5 ppm): 0% OF CONTROL | GLU ([1]; 0.5 ppm): 0% OF CONTROL | IBU ([1]; 0.5 ppm): 119% OF CONTROL | IVA ([1]; 0.5 ppm): 102% OF CONTROL | LLAC ([1]; 0.5 ppm): 0% OF CONTROL | LYS ([1]; 0.5 ppm): 106% OF CONTROL | NH--N ([1]; 0.5 ppm): 106% OF CONTROL | PRO ([1]; 0.5 ppm): 112% OF CONTROL | TOTAL ([1]; 0.5 ppm): 99% OF CONTROL | VAL ([1]; 0.5 ppm): 87% OF CONTROL | % PR ([1]; 5 ppm): 136% OF CONTROL | ACE ([1]; 5 ppm): 109% OF CONTROL | AMO ([1]; 5 ppm): 198% OF CONTROL | BUT ([1]; 5 ppm): 79% OF CONTROL | DLAC ([1]; 5 ppm): 0% OF CONTROL | ETOH ([1]; 5 ppm): 0% OF CONTROL | GLU ([1]; 5 ppm): 0% OF CONTROL | IBU ([1]; 5 ppm): 164% OF CONTROL | IVA ([1]; 5 ppm): 91% OF CONTROL | LLAC ([1]; 5 ppm): 0% OF CONTROL | LYS ([1]; 5 ppm): 130% OF CONTROL | NH--N ([1]; 5 ppm): 131% OF CONTROL | PRO ([1]; 5 ppm): 144% OF CONTROL | TOTAL ([1]; 5 ppm): 106% OF CONTROL | VAL ([1]; 5 ppm): 90% OF CONTROL | % PR ([1]; 50 ppm): 186% OF CONTROL | ACE ([1]; 50 ppm): 65% OF CONTROL | AMO ([1]; 50 ppm): 278% OF CONTROL | BUT ([1]; 50 ppm): 62% OF CONTROL | DLAC ([1]; 50 ppm): 0% OF CONTROL | ETOH ([1]; 50 ppm): 0% OF CONTROL | GLU ([1]; 50 ppm): 0% OF CONTROL | IBU ([1]; 50 ppm): 51% OF CONTROL | IVA ([1]; 50 ppm): 41% OF CONTROL | LLAC ([1]; 50 ppm): 0% OF CONTROL | LYS ([1]; 50 ppm): 150% OF CONTROL | NH--N ([1]; 50 ppm): 78% OF CONTROL | PRO ([1]; 50 ppm): 151% OF CONTROL | TOTAL ([1]; 50 ppm): 81% OF CONTROL | VAL ([1]; 50 ppm): 53% OF CONTROL

CC[C@@]1([C@H]2O[C@H]([C@H]3O[C@@](O)(CO)[C@H](C)C[C@@H]3C)C[C@H]2C)CC[C@H]([C@@]2(C)CC[C@]3(C[C@H](O)[C@@H](C)[C@@H]([C@H](C)[C@H](OC)[C@@H](C)C(=O)O)O3)O2)O1 [Monensin Sodium]
% PR (rumen inoculum; 0.5 ppm): 119% OF CONTROL | ACE (rumen inoculum; 0.5 ppm): 78% OF CONTROL | AMO (rumen inoculum; 0.5 ppm): 0% OF CONTROL | BUT (rumen inoculum; 0.5 ppm): 100% OF CONTROL | DLAC (rumen inoculum; 0.5 ppm): 0% OF CONTROL | ETOH (rumen inoculum; 0.5 ppm): 0% OF CONTROL | IBU (rumen inoculum; 0.5 ppm): 138% OF CONTROL | IVA (rumen inoculum; 0.5 ppm): 219% OF CONTROL | LLAC (rumen inoculum; 0.5 ppm): 0% OF CONTROL | PRO (rumen inoculum; 0.5 ppm): 112% OF CONTROL | TOTAL (rumen inoculum; 0.5 ppm): 94% OF CONTROL | UREA (rumen inoculum; 0.5 ppm): 0% OF CONTROL | VAL (rumen inoculum; 0.5 ppm): 101% OF CONTROL | VFA (rumen inoculum; 0.5 ppm): 94 % Control | % PR (rumen inoculum; 5 ppm): 149% OF CONTROL | ACE (rumen inoculum; 5 ppm): 74% OF CONTROL | AMO (rumen inoculum; 5 ppm): 0% OF CONTROL | BUT (rumen inoculum; 5 ppm): 93% OF CONTROL | DLAC (rumen inoculum; 5 ppm): 0% OF CONTROL | ETOH (rumen inoculum; 5 ppm): 0% OF CONTROL | IVA (rumen inoculum; 5 ppm): 265% OF CONTROL | LLAC (rumen inoculum; 5 ppm): 178% OF CONTROL | PRO (rumen inoculum; 5 ppm): 154% OF CONTROL | TOTAL (rumen inoculum; 5 ppm): 104% OF CONTROL | UREA (rumen inoculum; 5 ppm): 0% OF CONTROL | VAL (rumen inoculum; 5 ppm): 99% OF CONTROL | VFA (rumen inoculum; 5 ppm): 104 % Control | % PR (rumen inoculum; 50 ppm): 156% OF CONTROL | ACE (rumen inoculum; 50 ppm): 73% OF CONTROL | AMO (rumen inoculum; 50 ppm): 0% OF CONTROL | BUT (rumen inoculum; 50 ppm): 98% OF CONTROL | DLAC (rumen inoculum; 50 ppm): 0% OF CONTROL | ETOH (rumen inoculum; 50 ppm): 0% OF CONTROL | IBU (rumen inoculum; 50 ppm): 196% OF CONTROL | IVA (rumen inoculum; 50 ppm): 278% OF CONTROL | LLAC (rumen inoculum; 50 ppm): 999% OF CONTROL | PRO (rumen inoculum; 50 ppm): 171% OF CONTROL | UREA (rumen inoculum; 50 ppm): 0% OF CONTROL | VAL (rumen inoculum; 50 ppm): 107% OF CONTROL | % PR ([1]; 0.5 ppm): 117% OF CONTROL | ACE ([1]; 0.5 ppm): 100% OF CONTROL | AMO ([1]; 0.5 ppm): 115% OF CONTROL | BUT ([1]; 0.5 ppm): 94% OF CONTROL | DLAC ([1]; 0.5 ppm): 0% OF CONTROL | ETOH ([1]; 0.5 ppm): 0% OF CONTROL | GLU ([1]; 0.5 ppm): 0% OF CONTROL | IBU ([1]; 0.5 ppm): 104% OF CONTROL | IVA ([1]; 0.5 ppm): 114% OF CONTROL | LLAC ([1]; 0.5 ppm): 0% OF CONTROL | LYS ([1]; 0.5 ppm): 96% OF CONTROL | NH--N ([1]; 0.5 ppm): 137% OF CONTROL | PRO ([1]; 0.5 ppm): 122% OF CONTROL | TOTAL ([1]; 0.5 ppm): 104% OF CONTROL | VAL ([1]; 0.5 ppm): 105% OF CONTROL | % PR ([1]; 5 ppm): 146% OF CONTROL | ACE ([1]; 5 ppm): 102% OF CONTROL | AMO ([1]; 5 ppm): 238% OF CONTROL | BUT ([1]; 5 ppm): 71% OF CONTROL | DLAC ([1]; 5 ppm): 0% OF CONTROL | ETOH ([1]; 5 ppm): 0% OF CONTROL | GLU ([1]; 5 ppm): 0% OF CONTROL | IBU ([1]; 5 ppm): 91% OF CONTROL | IVA ([1]; 5 ppm): 75% OF CONTROL | LLAC ([1]; 5 ppm): 0% OF CONTROL | LYS ([1]; 5 ppm): 95% OF CONTROL | NH--N ([1]; 5 ppm): 105% OF CONTROL | PRO ([1]; 5 ppm): 145% OF CONTROL | TOTAL ([1]; 5 ppm): 99% OF CONTROL | VAL ([1]; 5 ppm): 81% OF CONTROL | % PR ([1]; 50 ppm): 185% OF CONTROL | ACE ([1]; 50 ppm): 76% OF CONTROL | AMO ([1]; 50 ppm): 274% OF CONTROL | BUT ([1]; 50 ppm): 59% OF CONTROL | DLAC ([1]; 50 ppm): 0% OF CONTROL | ETOH ([1]; 50 ppm): 0% OF CONTROL | GLU ([1]; 50 ppm): 0% OF CONTROL | IBU ([1]; 50 ppm): 55% OF CONTROL | IVA ([1]; 50 ppm): 45% OF CONTROL | LLAC ([1]; 50 ppm): 0% OF CONTROL | LYS ([1]; 50 ppm): 120% OF CONTROL | NH--N ([1]; 50 ppm): 84% OF CONTROL | PRO ([1]; 50 ppm): 159% OF CONTROL | TOTAL ([1]; 50 ppm): 86% OF CONTROL | VAL ([1]; 50 ppm): 58% OF CONTROL

— patent publication US4797280A, “Antibiotics produced by Kibdelosporangium aridum Shearer gen. nov., sp. nov. ATCC 39323” (SmithKline Beckman Corporation, priority 1986, dated 1989)
